From PubChem BioAssay (NCI)
Values joined by “and” are separate entries in the source; they are usually repeats but may differ in a detail not shown here. Equal entries are not always repeated.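 Compound exposure: 48 hours, 5 concentrations, 96-well plates. GI50 = concentration required for 50% inhibition of growth. The concentration for full growth arrest is given as TGI.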

Columns and labels:
Test in all cases: growth of human tumour cells (NCI), 48 h
EKVX NSCLC = system: EKVX NSCLC
SF-295 CNS = system: SF-295 CNS
RXF 393 renal = system: RXF 393 renal
OVCAR-4 ovarian = system: OVCAR-4 ovarian
CAKI-1 renal = system: CAKI-1 renal
SK-MEL-2 melanoma = system: SK-MEL-2 melanoma
A549 NSCLC = system: A549 NSCLC
PC-3 prostate = system: PC-3 prostate
HS 578T breast = system: HS 578T breast
MDA-MB-435 = system: MDA-MB-435

SMILES	TGI (EKVX NSCLC)	TGI (SF-295 CNS)	TGI (RXF 393 renal)	TGI (OVCAR-4 ovarian)	TGI (CAKI-1 renal)	TGI (SK-MEL-2 melanoma)	TGI (A549 NSCLC)	TGI (PC-3 prostate)	TGI (HS 578T breast)	TGI (MDA-MB-435)	GI50 (EKVX NSCLC)	GI50 (A549 NSCLC)	GI50 (SF-295 CNS)	GI50 (RXF 393 renal)	GI50 (OVCAR-4 ovarian)	GI50 (HS 578T breast)	GI50 (MDA-MB-435)	GI50 (SK-MEL-2 melanoma)	GI50 (PC-3 prostate)
O=C1C(=O)c2ccccc2C(O)=C1CCCc1ccc(Oc2ccccc2)cc1	> 100 µM	74.3 µM	64.1 µM	> 100 µM	70.5 µM	83.4 µM													
COc1ccc(-c2cc(-c3ccc(Nc4ccnc5cc(Cl)ccc45)cc3)[nH]c(=O)c2C#N)c2ccccc12	> 100 µM	> 50.1 µM	28.3 µM		48.4 µM	> 100 µM	> 52.9 µM	> 100 µM											
COc1ccc(-n2c(=O)n(C)c(=O)n2-c2ccc(OC)cc2)cc1	> 100 µM	> 100 µM			> 100 µM	> 100 µM	> 100 µM	> 100 µM	> 100 µM	> 100 µM									
CCOC(=O)C(NC(=O)CC)(Nc1cc(C)on1)C(F)(F)F (configuration not stated)	> 100 µM		> 100 µM			> 100 µM	> 100 µM	> 100 µM	> 100 µM	> 100 µM									
CC1(c2ccc[n+](Cc3ccccc3)c2)OCCO1	> 100 µM	> 100 µM	> 100 µM	> 100 µM	> 100 µM	> 100 µM	> 100 µM												
COc1ccc(-c2c(C#N)c(S)n(NS(=O)(=O)c3ccc(C)cc3)c(=O)c2C#N)cc1	68.3 µM	> 100 µM	42.5 µM	> 100 µM	> 100 µM	32.1 µM	> 100 µM	67.5 µM											
CCOP(=O)(OCC)C1CC(n2cc(C)c(=O)[nH]c2=O)OC1CO (configuration not stated)	> 100 µM	> 100 µM	> 100 µM	> 100 µM	> 100 µM	> 100 µM	> 100 µM	> 100 µM	> 100 µM		44.1 µM and > 100 µM								
COc1ccc2c(c1)c(CC(=O)O)c(C)n2C(=O)c1ccc(Cl)cc1	> 100 µM	> 100 µM		> 100 µM	> 100 µM	> 100 µM	> 100 µM	> 100 µM	> 100 µM	> 100 µM									
CCN(C(=S)N[C@H](C(=O)N[C@@H](C)C(=O)OC)C(C)C)c1ccccc1	> 100 µM	> 100 µM	> 100 µM	> 100 µM	> 100 µM	> 100 µM	> 100 µM	> 100 µM		> 100 µM									
Cc1nc2c(sc(=S)n2-c2ccccc2)c(=O)[nH]1		> 100 µM				> 100 µM	> 100 µM												
COc1ccc(C(=O)Cc2ccc(Br)cc2)cc1OC	> 100 µM	> 100 µM	> 100 µM	> 100 µM	> 100 µM	> 100 µM	> 100 µM												
N#Cc1c(-c2ccc(Cl)cc2)c2c(n(C3OC(CO)C(O)C(O)C3O)c1=S)CCC2 (configuration not stated)			63.2 µM	> 100 µM	> 100 µM	> 100 µM	> 100 µM	> 100 µM	84.3 µM	46.1 µM									
CC1(C)[C@H]2CC[C@]1(C)[C@H](OC(=O)NNC(=O)O[C@@H]1C[C@@H]3CC[C@@]1(C)C3(C)C)C2	31.2 µM	28.8 µM	24.7 µM	24.1 µM	28.8 µM	32.5 µM	25.1 µM		36.6 µM	64.4 µM									
NCCCN(CCCN)CCN(CCN(CCCN)CCCN)CCN(CCCN)CCCN		> 100 µM		> 100 µM	> 100 µM	> 100 µM	> 100 µM	> 100 µM	58.5 µM	> 100 µM									
Nc1ccccc1CC(O)C(=O)O (configuration not stated)	> 100 µM	> 100 µM	> 100 µM		> 100 µM		> 100 µM	> 100 µM	> 100 µM	> 100 µM									
Cc1c2c(n(CCc3ccc(Cl)cc3)c1C)NC(c1ccccc1)C(C#N)S2(=O)=O (configuration not stated)	> 100 µM	> 100 µM		> 100 µM	> 100 µM	> 68.9 µM	> 100 µM	> 100 µM	> 79.5 µM	> 66.9 µM									
Cc1cc(N2CCCC2)nc(N(CCNc2ccnc3cc(Cl)ccc23)Cc2ccco2)n1	> 100 µM	16.1 µM	6.74 µM	> 100 µM		> 100 µM	> 100 µM	> 100 µM	69.3 µM	> 100 µM	5.7 µM	5.9 µM	2.07 µM	2.14 µM	3.22 µM	6.6 µM	3.33 µM	18 µM	2.84 µM
COc1ccc(C2N(NC(=O)c3ccncc3)C(=O)CS2(=O)=O)cc1F (configuration not stated)		> 100 µM	> 100 µM	> 100 µM	> 100 µM	> 100 µM	> 100 µM												
